Assay results as given in patent publication US20250382344A1, “Soluble GLP1/GIP/NPY2 Receptor Triple Agonists” (Boehringer Ingelheim International GmH, priority 2024, published 2025).
Where two headings read alike, the source gives them in different places. *1 amine or outer side, *2 acyl side, *3 side chain or, on linkers, in order; H or OH if unused. Where a SMILES comes first, the peptide text is derived from it. Side-chain parts run from the residue outwards. [ ]: non-standard residue; d: D form. The star is where a group is joined. Argψ(CH2NH)TyrNH2 = N=C(N)NCCC[C@@H](CN[C@@H](Cc1ccc(O)cc1)C(N)=O)N*; C20 diacid = O=C(O)CCCCCCCCCCCCCCCCCCC(=O)*; γGlu = O=C(O)[C@H](CCC(=O)[*:2])N[*:1]; εLys = N[C@@H](CCCCN[*:1])C(=O)[*:2]; Aib = CC(C)(N)C(=O)O

Columns and labels:
hGLP1R = biological target: T1, hGLP1R (Homo sapiens, UniProt P43220); assay: hGLP1R CreLuc assay in 0.5% and 100% plasma (HEK-293 CRE-luciferase reporter cells); type: cell-based; settings: HEK-293 reporter cells
T1 construct: expressed in transfected cells; host or cells: HEK-293 CRE-luciferase reporter cells

hNPY2R = biological target: T2, hNPY2R (Homo sapiens, UniProt P49146); assay: hNPY2R CreLuc assay in 0.5% and 100% plasma (HEK-293 CRE-luciferase reporter cells); type: cell-based; settings: HEK-293 reporter cells
T2 construct: expressed in transfected cells; host or cells: HEK-293 CRE-luciferase reporter cells
T2 sequence (P49146 1-381): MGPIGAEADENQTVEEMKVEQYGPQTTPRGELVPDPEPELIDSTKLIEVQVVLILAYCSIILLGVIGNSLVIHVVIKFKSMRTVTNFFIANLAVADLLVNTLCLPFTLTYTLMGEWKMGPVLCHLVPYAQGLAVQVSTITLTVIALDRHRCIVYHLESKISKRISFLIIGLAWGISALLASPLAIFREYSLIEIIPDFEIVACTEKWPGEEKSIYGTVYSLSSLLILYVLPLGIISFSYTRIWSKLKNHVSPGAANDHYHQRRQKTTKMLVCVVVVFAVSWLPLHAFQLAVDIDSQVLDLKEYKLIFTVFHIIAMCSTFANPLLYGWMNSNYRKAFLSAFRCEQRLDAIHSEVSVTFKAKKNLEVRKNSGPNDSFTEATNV

hGIPR = biological target: T3, hGIPR (Homo sapiens, UniProt P48546); assay: hGIPR CreLuc assay in 0.5% and 100% plasma (CHO CRE-luciferase reporter cells); type: cell-based
T3 construct: expressed in transfected cells; host or cells: CHO CRE-luciferase reporter cells
T3 sequence (P48546 22-466): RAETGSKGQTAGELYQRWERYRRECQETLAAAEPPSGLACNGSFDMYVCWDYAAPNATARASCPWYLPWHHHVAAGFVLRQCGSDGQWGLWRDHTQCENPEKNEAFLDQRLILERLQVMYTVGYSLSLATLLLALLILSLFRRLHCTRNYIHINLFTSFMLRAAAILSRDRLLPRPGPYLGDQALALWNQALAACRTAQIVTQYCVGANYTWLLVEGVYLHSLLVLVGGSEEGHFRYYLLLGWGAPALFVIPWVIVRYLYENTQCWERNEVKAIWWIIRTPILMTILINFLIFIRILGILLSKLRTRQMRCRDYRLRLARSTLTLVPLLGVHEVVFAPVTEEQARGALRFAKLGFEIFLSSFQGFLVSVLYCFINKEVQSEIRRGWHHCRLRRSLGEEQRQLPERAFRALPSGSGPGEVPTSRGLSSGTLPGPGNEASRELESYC

[1] = Solubility in 0.1 M phosphate buffer at pH 7; type: physicochemical; settings: 0.1 M phosphate buffer at pH 7, 10 mg/mL final peptide concentration, shaking 2 hours at room temperature, peptides as TFA-salts; measured sample pH 6.5-7.0
[2] = 0.5% human plasma, read-out: hGLP1R 0.5% hP
[3] = 100% human plasma, read-out: hGLP1R 100% hP
[4] = 0.5% human plasma, read-out: hNPY2R 0.5% hP
[5] = 0.5% human plasma, read-out: hGIPR 0.5% hP
[6] = 100% human plasma, read-out: hGIPR 100% hP

T1 sequence (P43220 24-463): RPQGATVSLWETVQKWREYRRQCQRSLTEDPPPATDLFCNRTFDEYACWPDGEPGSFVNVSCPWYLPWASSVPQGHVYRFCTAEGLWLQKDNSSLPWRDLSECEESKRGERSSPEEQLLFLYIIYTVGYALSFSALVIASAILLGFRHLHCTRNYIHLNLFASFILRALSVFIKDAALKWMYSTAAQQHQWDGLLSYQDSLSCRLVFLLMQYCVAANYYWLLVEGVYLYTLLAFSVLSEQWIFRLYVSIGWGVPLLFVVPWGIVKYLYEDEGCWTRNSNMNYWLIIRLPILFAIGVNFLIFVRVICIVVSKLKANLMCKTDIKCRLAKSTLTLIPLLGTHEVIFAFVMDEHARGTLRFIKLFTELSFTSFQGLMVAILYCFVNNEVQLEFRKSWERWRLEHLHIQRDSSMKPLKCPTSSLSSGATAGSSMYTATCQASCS

Row | Compound | EC50 (hGLP1R; [2]) [nM] | EC50 (hGLP1R; [3]) [nM] | EC50 (hNPY2R; [4]) [nM] | EC50 (hGIPR; [5]) [nM] | EC50 (hGIPR; [6]) [nM] | EC50 (hNPY2R; 100% human plasma, read-out: hNPY2R 100% hP) [nM] | solubility at 2 h [1] [µg/mL]
1 | CC[C@H](C)[C@H](NC(=O)[C@H](CC(C)C)NC(=O)[C@H](Cc1c[nH]cn1)NC(=O)[C@H](CCCNC(=N)N)NC(=O)[C@@H](NC(=O)[C@H](Cc1ccccc1)NC(=O)[C@H](C)NC(=O)C(C)(C)NC(=O)[C@H](CCC(N)=O)NC(=O)[C@H](C)NC(=O)[C@H](CCC(N)=O)NC(=O)[C@H](CCCCN)NC(=O)[C@H](CC(=O)O)NC(=O)[C@H](CC(C)C)NC(=O)C(C)(C)NC(=O)[C@@H](NC(=O)[C@H](CO)NC(=O)[C@H](Cc1ccc(O)cc1)NC(=O)[C@H](CC(=O)O)NC(=O)[C@H](CO)NC(=O)[C@@H](NC(=O)[C@H](Cc1ccccc1)NC(=O)[C@@H](NC(=O)CNC(=O)[C@H](CCC(=O)O)NC(=O)C(C)(C)NC(=O)[C@@H](N)Cc1ccc(O)cc1)[C@@H](C)O)[C@@H](C)O)[C@@H](C)CC)C(C)C)C(=O)N[C@@H](CC(N)=O)C(=O)N[C@@H](CCCCNC(=O)[C@@H](N)CCCCNC(=O)CC[C@H](NC(=O)CC[C@H](NC(=O)CC[C@H](NC(=O)CC[C@H](NC(=O)CC[C@H](NC(=O)CC[C@H](NC(=O)CC[C@H](NC(=O)CCCCCCCCCCCCCCCCCCC(=O)O)C(=O)O)C(=O)O)C(=O)O)C(=O)O)C(=O)O)C(=O)O)C(=O)O)C(=O)NC(C)(C)C(=O)N[C@H](C(=O)N[C@@H](CCCNC(=N)N)C(=O)N[C@@H](CCC(N)=O)C(=O)N[C@@H](CCCNC(=N)N)CN[C@@H](Cc1ccc(O)cc1)C(N)=O)[C@@H](C)O [Compound 16, Y-Aib-E-G-T-F-T-S-D-Y-S-I-Aib-L-D-K-Q-A-Q-Aib-A-F-V-R-H-L-I-N-K(1,3)-Aib-T-R-Q-dOR-Y-NH2.C20DA-gGlu-gGlu-gGlu-gGlu-gGlu-gGlu-gGlu-eLys(1,2)] (H-Y[Aib]EGTFTSDYSI[Aib]LDKQAQ[Aib]AFVRHLINK([εLys-γGlu-γGlu-γGlu-γGlu-γGlu-γGlu-γGlu-C20 diacid])[Aib]TRQ-{Argψ(CH2NH)TyrNH2}) | 0.7 | 1.8 | 6.4 | 0.5 | 2 | – | –
2 | CC[C@H](C)[C@H](NC(=O)[C@H](Cc1ccccc1)NC(=O)[C@H](C)NC(=O)C(C)(C)NC(=O)[C@H](CCC(N)=O)NC(=O)[C@H](C)NC(=O)[C@H](CCC(N)=O)NC(=O)[C@H](CCCCN)NC(=O)[C@H](CC(=O)O)NC(=O)[C@H](CC(C)C)NC(=O)C(C)(C)NC(=O)[C@@H](NC(=O)[C@H](CO)NC(=O)[C@H](Cc1ccc(O)cc1)NC(=O)[C@H](CC(=O)O)NC(=O)[C@H](CO)NC(=O)[C@@H](NC(=O)[C@H](Cc1ccccc1)NC(=O)[C@@H](NC(=O)CNC(=O)[C@H](CCC(=O)O)NC(=O)C(C)(C)NC(=O)[C@@H](N)Cc1ccc(O)cc1)[C@@H](C)O)[C@@H](C)O)[C@@H](C)CC)C(=O)N[C@@H](CCCNC(=N)N)C(=O)N[C@@H](Cc1c[nH]cn1)C(=O)N[C@@H](CC(C)C)C(=O)N[C@H](C(=O)N[C@@H](CC(N)=O)C(=O)N[C@@H](CCCCNC(=O)[C@@H](N)CCCCNC(=O)CC[C@H](NC(=O)CC[C@H](NC(=O)CC[C@H](NC(=O)CC[C@H](NC(=O)CC[C@H](NC(=O)CC[C@H](NC(=O)CCCCCCCCCCCCCCCCCCC(=O)O)C(=O)O)C(=O)O)C(=O)O)C(=O)O)C(=O)O)C(=O)O)C(=O)NC(C)(C)C(=O)N[C@H](C(=O)N[C@@H](CCCNC(=N)N)C(=O)N[C@@H](CCC(N)=O)C(=O)N[C@@H](CCCNC(=N)N)C(=O)N[C@@H](Cc1ccc(O)cc1)C(N)=O)[C@@H](C)O)[C@@H](C)CC [Compound 81, Y-Aib-E-G-T-F-T-S-D-Y-S-I-Aib-L-D-K-Q-A-Q-Aib-A-F-I-R-H-L-I-N-K(1,3)-Aib-T-R-Q-R-Y-NH2.C20DA-gGlu-gGlu-gGlu-gGlu-gGlu-gGlu-eLys(1,2)] | 0.6 | 3.8 | 7.2 | 0.5 | – | – | –
3 | CC[C@H](C)[C@H](NC(=O)[C@H](CC(C)C)NC(=O)[C@H](Cc1c[nH]cn1)NC(=O)[C@H](CCCNC(=N)N)NC(=O)[C@@H](NC(=O)[C@H](Cc1ccccc1)NC(=O)[C@H](C)NC(=O)C(C)(C)NC(=O)[C@H](CCC(N)=O)NC(=O)[C@H](C)NC(=O)[C@H](CCC(N)=O)NC(=O)[C@H](CCCCN)NC(=O)[C@H](CCC(=O)O)NC(=O)[C@H](CC(C)C)NC(=O)C(C)(C)NC(=O)[C@@H](NC(=O)[C@H](CO)NC(=O)[C@H](Cc1ccc(O)cc1)NC(=O)[C@H](CC(=O)O)NC(=O)[C@H](CO)NC(=O)[C@@H](NC(=O)[C@H](Cc1ccccc1)NC(=O)[C@@H](NC(=O)CNC(=O)[C@H](CCC(=O)O)NC(=O)C(C)(C)NC(=O)[C@@H](N)Cc1ccc(O)cc1)[C@@H](C)O)[C@@H](C)O)[C@@H](C)CC)C(C)C)C(=O)N[C@@H](CC(N)=O)C(=O)N[C@@H](CCCCNC(=O)[C@@H](N)CCCCNC(=O)CC[C@H](NC(=O)CC[C@H](NC(=O)CC[C@H](NC(=O)CC[C@H](NC(=O)CC[C@H](NC(=O)CC[C@H](NC(=O)CCCCCCCCCCCCCCCCC(=O)O)C(=O)O)C(=O)O)C(=O)O)C(=O)O)C(=O)O)C(=O)O)C(=O)NC(C)(C)C(=O)N[C@H](C(=O)N[C@@H](CCCNC(=N)N)C(=O)N[C@@H](CCC(N)=O)C(=O)N[C@@H](CCCNC(=N)N)C(=O)N[C@@H](Cc1ccc(F)cc1)C(N)=O)[C@@H](C)O [Compound 86, Y-Aib-E-G-T-F-T-S-D-Y-S-I-Aib-L-E-K-Q-A-Q-Aib-A-F-V-R-H-L-I-N-K(1,3)-Aib-T-R-Q-R-Phe4F-NH2.C18DA-gGlu-gGlu-gGlu-gGlu-gGlu-gGlu-eLys(1,2)] | 0.8 | – | – | 0.3 | 5.9 | 162 | –
4 | CC[C@H](C)[C@H](NC(=O)[C@H](CC(C)C)NC(=O)[C@H](Cc1c[nH]cn1)NC(=O)[C@H](CCCNC(=N)N)NC(=O)[C@@H](NC(=O)[C@H](Cc1ccccc1)NC(=O)[C@H](C)NC(=O)C(C)(C)NC(=O)[C@H](CCC(N)=O)NC(=O)[C@H](C)NC(=O)[C@H](CCC(N)=O)NC(=O)[C@H](CCCCN)NC(=O)[C@H](CCC(=O)O)NC(=O)[C@H](CC(C)C)NC(=O)C(C)(C)NC(=O)[C@@H](NC(=O)[C@H](CO)NC(=O)[C@H](Cc1ccc(O)cc1)NC(=O)[C@H](CC(=O)O)NC(=O)[C@H](CO)NC(=O)[C@@H](NC(=O)[C@H](Cc1ccccc1)NC(=O)[C@@H](NC(=O)CNC(=O)[C@H](CCC(=O)O)NC(=O)C(C)(C)NC(=O)[C@@H](N)Cc1ccc(O)cc1)[C@@H](C)O)[C@@H](C)O)[C@@H](C)CC)C(C)C)C(=O)N[C@@H](CC(N)=O)C(=O)N[C@@H](CCCCNC(=O)CC[C@H](NC(=O)CC[C@H](NC(=O)CC[C@H](NC(=O)CC[C@H](NC(=O)CC[C@H](NC(=O)CCCCCCCCCCCCCCCCCCC(=O)O)C(=O)O)C(=O)O)C(=O)O)C(=O)O)C(=O)O)C(=O)NC(C)(C)C(=O)N[C@H](C(=O)N[C@@H](CCCNC(=N)N)C(=O)N[C@@H](CCC(N)=O)C(=O)N[C@@H](CCCNC(=N)N)C(=O)N[C@@H](Cc1ccc(O)cc1)C(N)=O)[C@@H](C)O [Compound 176, Y-Aib-E-G-T-F-T-S-D-Y-S-I-Aib-L-E-K-Q-A-Q-Aib-A-F-V-R-H-L-I-N-K(1,3)-Aib-T-R-Q-R-Y-NH2.C20DA-gGlu-gGlu-gGlu-gGlu-gGlu(1,2)] | – | – | 32.8 | 0.6 | – | – | 5300
